Common to all, as to assay type: in vivo
Assay [1] has as its system male Swiss-Webster mice. Description: abdominal irritant test (test for analgesia), acetylcholine bromide i.p. The settings on record: 30 min before acetylcholine bromide 5.5 mg/kg i.p., observed 10 min, 10 mice per group. The protocol:
The test that was employed is an abdominal irritant test that was carried out in accordance with the procedure set forth by Collier et al., Brit. J. Pharmacol., 32:295-310 (1968).
Each group of 10 male Swiss-Webster mice weighing 25-30 g received an oral injection of (a) distilled water or 1% Tween® 80; or (b) a previously established analgesic dose of either ibuprofen (30 mg/kg), ketoprofen (200 mg/kg), naproxen (30 mg/kg), piroxicam (3 mg/kg) or aspirin (150 mg/kg) or ([…]).
Thirty minutes after each injection, each mouse was injected i.p. ([…]) with an aqueous solution of acetylcholine bromide (5.5 mg/kg). The animals were then observed for 10 minutes for the presence or absence of a characteristic wave of contraction and elongation passing caudally along the abdominal wall, accompanied by a twisting of the trunk and followed by extension of the hind limbs. The percentage of analgesia was then calculated for each group based on the percentage of mice displaying no behavioral response.

Assay [2] deals with male Swiss Webster mice. Briefly: Metrazol-induced convulsions (test for antiepileptic activity). The settings on record: 15 mg/kg subcutaneous, 15 min before metrazol 120 mg/kg s.c., 10 mice. The protocol: Three groups of 10 male Swiss Webster mice (25-30 g) received a subcutaneous injection of one of the following treatments: vehicle alone; phenytoin (15 mg/kg in 1% Tween® 80); halide-free glucosamine-phenytoin complex, ˜1:1 molar ratio, (15 mg/kg in water). Fifteen minutes later, each animal was injected subcutaneously with a convulsant dose of metrazol (120 mg/kg) and observed for 60 minutes for an entire-body convulsion.

The test system of assay [3] is male Swiss Webster mice. Description: Elevated Plus Maze (test for antianxiety activity). The settings on record: 0.50 mg/kg intraperitoneal, 30 min before test, 5 minute on maze, 6 mice.
Procedure: The apparatus employed in this example consisted of two darkened enclose arms and two open arms, with a light beam focused on the open arms. The maze is elevated to a height of 55 cm. Mice have a desire to explore the apparatus, but the open, bristly lit arms present an aversive environment so that their preference is to remain in the enclosed arms.
Thirty minutes later, each animal was individually placed on the elevated maze for 5 minute and the time spent on the open (aversive) arms was recorded.
Where [4] appears, read: 30 mg/kg oral (complex: mg/kg of the complex).

With `CC(C(=O)O)c1cccc(C(=O)c2ccccc2)c1` (stereo not shown) [ketoprofen], in assay [1] (200 mg/kg oral (complex: mg/kg of the complex)), the “analgesia (percentage of mice displaying no behavioral response)” value was 56%.

In the case of `O=C1NC(=O)C(c2ccccc2)(c2ccccc2)N1` [Phenytoin, phenytoin], the “No. of mice protected (no body seizures in 60 min.)” value in assay [2] is listed as 1/10. As to `CN1C(C(=O)Nc2ccccn2)=C(O)c2ccccc2S1(=O)=O` [piroxicam], the “analgesia (percentage of mice displaying no behavioral response)” value in assay [1] (3 mg/kg oral (complex: mg/kg of the complex)) was 70%. Regarding `CN1C(=O)CN=C(c2ccccc2)c2cc(Cl)ccc21` [Diazepam, diazepam], in assay [3], the “Mean time (sec) ± s.e.m. in open arms” value amounted to 30.3 ± 12.7 s. For `COc1ccc2cc([C@H](C)C(=O)O)ccc2c1` [naproxen], the “analgesia (percentage of mice displaying no behavioral response)” value in assay [1] (setting [4]) stood at 70%.

For `CC(C)Cc1ccc(C(C)C(=O)O)cc1` (stereo not shown) [ibuprofen], in assay [1] (setting [4]), the “analgesia (percentage of mice displaying no behavioral response)” value was found to be 80%. For the compound `CC(=O)Oc1ccccc1C(=O)O` [aspirin], the “analgesia (percentage of mice displaying no behavioral response)” value in assay [1] (0.50 mg/kg oral as printed (complex: mg/kg of the complex)) was determined as 70%.

The values above are taken from US7662803B2, “Method for treating warm-blooded vertebrates with halide-free glucosamine-acidic drug complexes” (Gluconova, LLC, priority 2004, dated 2010).
